Assay results: PubChem BioAssay (NCI)
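Growth conditions: 96-well plates. Treatment: test compound, 48 hours, 5 concentrations. Analysis: linear interpolation between bracketing concentrations; unreached endpoints set to highest concentration. GI50 marks 50% less growth. TGI marks complete inhibition of growth.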

Assays:
Experiment in all cases: NCI tumour cell line growth inhibition, 48 h
[1] = test system: SF-268 CNS
[2] = test system: U251 CNS
[3] = test system: SK-MEL-2 melanoma
[4] = test system: PC-3 prostate
[5] = test system: KM12 colon
[6] = test system: SK-MEL-28 melanoma
[7] = test system: HOP-92 NSCLC
[8] = test system: NCI/ADR-RES ovarian
[9] = test system: SN12C renal
[10] = test system: HCC-2998 colon
[11] = test system: SK-OV-3 ovarian
[12] = test system: UO-31 renal
[13] = test system: CAKI-1 renal
[14] = test system: NCI-H226 lung
[15] = test system: HL-60(TB) leukemia
[16] = test system: SW-620 colon
[17] = test system: OVCAR-5 ovarian
[18] = test system: LOX IMVI melanoma
[19] = test system: SR leukemia
[20] = test system: NCI-H522 lung
[21] = test system: BT-549 breast
[22] = test system: MDA-MB-435
[23] = test system: T-47D breast
[24] = test system: COLO 205 colon
[25] = test system: EKVX NSCLC
[26] = test system: SNB-19 CNS
[27] = test system: M14 melanoma
[28] = test system: HS 578T breast
[29] = test system: HCT-116 colon
[30] = test system: MOLT-4 leukemia
[31] = test system: HOP-62 NSCLC
[32] = test system: HT29 colon
[33] = test system: NCI-H23 lung
[34] = test system: K-562 leukemia
[35] = test system: MCF7 breast
[36] = test system: HCT-15 colon
[37] = test system: 786-0 renal
[38] = test system: RPMI-8226 leukemia
[39] = test system: OVCAR-8 ovarian
[40] = test system: SF-539 CNS
[41] = test system: OVCAR-3 ovarian
[42] = test system: A498 renal
[43] = test system: IGROV1 ovarian
[44] = test system: MDA-MB-231 breast
[45] = test system: NCI-H460 lung
[46] = test system: A549 NSCLC
[47] = test system: DU-145 prostate
[48] = test system: RXF 393 renal
[49] = test system: OVCAR-4 ovarian
[50] = test system: SNB-75 CNS
[51] = test system: UACC-62 melanoma
[52] = test system: MALME-3M melanoma
[53] = test system: TK-10 renal
[54] = test system: ACHN renal
[55] = test system: SK-MEL-5 melanoma
[56] = test system: UACC-257 melanoma
[57] = test system: CCRF-CEM leukemia
[58] = test system: SF-295 CNS

Work on `CN1CCN(c2ccc(Nc3nc(NCCNS(=O)(=O)c4ccc5ccccc5c4)c4sccc4n3)cc2)CC1` yielded a GI50 [1] of 11.5 µM, a TGI [1] of 30.2 µM and a GI50 [2] of 3.21 µM. It also gave a TGI [2] of 12 µM, a GI50 [3] of 19.6 µM and a TGI [3] of 36.1 µM. For the same compound, the GI50 [4] was 11.4 µM, the TGI [4] was 31.1 µM and the GI50 [5] was 16.2 µM. For the same compound, the TGI [5] was 35.7 µM, the GI50 [6] was 2.21 µM and the TGI [6] was 5 µM. For the same compound, the GI50 [7] was 3.31 µM, the TGI [7] was 16.1 µM and the GI50 [8] was 14.8 µM. The TGI [8] was 38.3 µM, the GI50 [9] was 13.1 µM and the TGI [9] was 26.3 µM. It also gave a GI50 [10] of 3.34 µM, a TGI [10] of 12.5 µM and a GI50 [11] of 19.4 µM. It also gave a TGI [11] of 35.6 µM, a GI50 [12] of 12.4 µM and a TGI [12] of 25.5 µM. For the same compound, the GI50 [13] was 3.87 µM, the TGI [13] was 15.2 µM and the GI50 [14] was 14.2 µM. It also gave a TGI [14] of 28.3 µM, a GI50 [15] of 1.99 µM and a TGI [15] of 4.04 µM. For the same compound, the GI50 [16] was 6.41 µM, the TGI [16] was 21.8 µM and the GI50 [17] was 11.5 µM. For the same compound, the TGI [17] was 23.7 µM, the GI50 [18] was 1.75 µM and the TGI [18] was 3.36 µM. For the same compound, the GI50 [19] was 2.57 µM, the TGI [19] was 7.42 µM and the GI50 [20] was 7.16 µM. The TGI [20] was 21.6 µM, the GI50 [21] was 12.4 µM and the TGI [21] was 24.9 µM. It also gave a GI50 [22] of 3.34 µM, a TGI [22] of 11.8 µM and a GI50 [23] of 3.71 µM. The TGI [23] was 16.9 µM, the GI50 [24] was 2.22 µM and the TGI [24] was 4.99 µM. For the same compound, the GI50 [25] was 13 µM, the TGI [25] was 26.3 µM and the GI50 [26] was 16.3 µM. It also gave a TGI [26] of 30 µM, a GI50 [27] of 1.88 µM and a TGI [27] of 3.4 µM. For the same compound, the GI50 [28] was 14.1 µM, the TGI [28] was 46.8 µM and the GI50 [29] was 2.21 µM. The TGI [29] was 5.64 µM, the GI50 [30] was 4.55 µM and the TGI [30] was 24.1 µM. The GI50 [31] was 15 µM, the TGI [31] was 29.2 µM and the GI50 [32] was 3.31 µM. The TGI [32] was 12.3 µM, the GI50 [33] was 13.3 µM and the TGI [33] was 26.9 µM. It also gave a GI50 [34] of 2.27 µM, a TGI [34] of 7.15 µM and a GI50 [35] of 4.04 µM. It also gave a TGI [35] of 15.7 µM, a GI50 [36] of 2.31 µM and a TGI [36] of 5.59 µM. For the same compound, the GI50 [37] was 2.69 µM, the TGI [37] was 8.16 µM and the GI50 [38] was 2.46 µM. For the same compound, the TGI [38] was 6.18 µM, the GI50 [39] was 6.65 µM and the TGI [39] was 19.9 µM. For the same compound, the GI50 [40] was 1.91 µM, the TGI [40] was 4.05 µM and the GI50 [41] was 10.7 µM. For the same compound, the TGI [41] was 28.1 µM, the GI50 [42] was 19.2 µM and the TGI [42] was 34 µM. It also gave a GI50 [43] of 11 µM, a TGI [43] of 23.4 µM and a GI50 [44] of 3.87 µM. The TGI [44] was 14.8 µM, the GI50 [45] was 12.1 µM and the TGI [45] was 27.2 µM. The GI50 [46] was 9.03 µM, the TGI [46] was 26.8 µM and the GI50 [47] was 12 µM. The TGI [47] was 25 µM, the GI50 [48] was 2.33 µM and the TGI [48] was 6.58 µM. The GI50 [49] was 10.3 µM, the TGI [49] was 28.2 µM and the GI50 [50] was 11.6 µM. It also gave a TGI [50] of 24.2 µM, a GI50 [51] of 11.7 µM and a TGI [51] of 24 µM. For the same compound, the GI50 [52] was 1.8 µM, the TGI [52] was 3.28 µM and the GI50 [53] was 21.5 µM. The TGI [53] was 37.3 µM, the GI50 [54] was 8.51 µM and the TGI [54] was 20.7 µM. The GI50 [55] was 3.27 µM, the TGI [55] was 11.3 µM and the GI50 [56] was 1.84 µM. The TGI [56] was 3.56 µM, the GI50 [57] was 3.52 µM and the TGI [57] was 13.9 µM. The GI50 [58] was 11.8 µM and the TGI [58] was 24.1 µM.
